From PubChem BioAssay AID504861 (Broad Institute, 2011)
Activity calls are given as the source filed them.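 Rule for the calls: active = compounds lowering cell viability signal with fitted half-maximal concentration at most ten times their highest tested concentration; inconclusive = flat fit with 30 to 70% signal loss, or poor fit; inactive = the rest.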

Test system: HEK293T viability, CellTiter-Glo ATP luminescence, 48 h
Assay: cytotoxicity in HEK293T cells – cell-based, CellTiter-Glo luminescence, cherry-picks, cytotoxicity control for LMP1 NF-kB inhibitor project, dose response (AID 504861)

CC(=O)NC(c1ccc(Cl)cc1Cl)c1ccc2cccnc2c1O (configuration not stated)
AC50: 1.63 µM

COc1ccc2c(c1)/C(=C/c1cnc[nH]1)C(=O)N2
AC50: 23.1 µM

COc1ccc(N/N=C/c2c(C(=O)O)ccc3ccccc23)cc1
AC50: 4.11 µM

CC(=NNc1nc2ccccc2o1)c1ncccn1
AC50: 16 µM

CCC(=O)NC(c1cc(Cl)c2cccnc2c1O)C1CC1 (configuration not stated)
AC50: 9.86 µM

CCOc1ccc(OCC(=O)Nc2nccs2)cc1
AC50: 11.3 µM

COc1ccc(C(NC(C)=O)c2cc(Cl)c3cccnc3c2O)cc1 (configuration not stated)
AC50: 4.88 µM

c1ccc(-c2cccc(-c3ccccn3)n2)nc1
AC50: 1.77 µM

CCC(C)Nc1nc(-c2ccccn2)nc2ccccc12 (configuration not stated)
AC50: 4.04 µM

CCCCC(=O)NC(c1ccc(OC)c(OC)c1)c1ccc2cccnc2c1O (configuration not stated)
AC50: 4.63 µM

Cc1cccc(-n2ncc(Cl)c(Cl)c2=O)c1
AC50: 5.2 µM

CCC(=O)NC(c1ccc(Cl)cc1Cl)c1ccc2cccnc2c1O (configuration not stated)
AC50: 8.21 µM

O=C1c2ccccc2C(Nc2ccc(Cl)cc2)N1CCN1CCOCC1 (configuration not stated)
AC50: > 26 µM (inactive)

CC(C)CC(=NNC(=O)c1ccncc1)c1cc(Cl)ccc1O
AC50: 3.12 µM

COc1ccc(C(=O)C(CN2CCOCC2)c2ccccc2)cc1F (configuration not stated)
AC50: 8.32 µM

CCOc1ccc(Br)cc1/C(C)=N\NC1=NCCN1
AC50: 3.69 µM

C#CCn1c(S(=O)(=O)Cc2ccc(F)cc2)nc(-c2ccccc2)c1-c1ccccc1
AC50: > 26 µM (inactive)

CC(=NNc1nc2ccccc2s1)c1ncccn1
AC50: 13.8 µM

O=C(c1ccccc1)C(CCC(CN1CCOCC1)C(=O)c1ccccc1)CN1CCOCC1 (configuration not stated)
AC50: 2.57 µM

CCN1C(=O)[C@@H]2[C@@H](c3ccc(-c4ccc(Cl)c(Cl)c4)cc3)N3CCC[C@@]3(C(=O)OC)[C@@H]2C1=O
AC50: > 26 µM (inactive)

COc1cccc(/C=N/NC(=O)c2[nH]nc3c2CCc2ccccc2-3)c1O
AC50: 3.21 µM

CCN(CC)c1ccc(/C=N/NC(=O)c2cnccn2)c(O)c1
AC50: 3.21 µM

CCc1nc(SCC(=O)c2ccc3c(c2)OCCO3)c2ccccc2n1
AC50: > 26 µM (inactive)

CC(=O)NC(c1ccc2ccccc2c1)c1ccc2cccnc2c1O (configuration not stated)
AC50: 1.32 µM

Oc1ccc(C=NNC(=S)Nc2ccccc2)nc1
AC50: 4.96 µM

CCOc1cccc(/C=N/Nc2ccc(S(=O)(=O)N(CC)CC)cn2)c1O
AC50: 1.69 µM

COc1cccc(N=Nc2ccc(O)c3ncccc23)c1
AC50: 2.88 µM

S=C(NN=Cc1ccccn1)Nc1ccccn1
AC50: 23 µM

CCC(=O)NC(c1ccc(C)cc1)c1ccc2cccnc2c1O (configuration not stated)
AC50: 4.33 µM

Cc1cc(=O)[nH]c(NN=Cc2cc(Br)ccc2O)n1
AC50: 3.36 µM

C/C(=N/NC(=O)c1ccc(C(C)(C)C)cc1)c1ccccn1
AC50: 3.38 µM

COc1cc(C=C2CCCC(=Cc3ccc(OCC4CO4)c(OC)c3)C2=O)ccc1OCC1CO1 (configuration not stated)
AC50: 24.3 µM

COc1ccc(O)c(/C=N/NC(=O)c2ccc(OCc3cccc(Br)c3)cc2)c1
AC50: 4.45 µM

O=[N+]([O-])c1c(Nc2cccc(O)c2)cc(Cl)c2nonc12
AC50: 4.39 µM

CSc1ccc2c(c1)C(N1CCN(C)CC1)Cc1ccccc1S2 (configuration not stated)
AC50: 15.4 µM

C#CCN(C[C@@H]1[C@@H](OC(=O)NCc2ccccc2F)[C@@H](OC(=O)NCc2ccccc2F)Cn2c(=O)ccc(=O)n21)S(=O)(=O)c1ccc(C)cc1
AC50: 7.27 µM

CCN1CCN(Cc2ccc(NC(=O)c3ccc(C)c(NC(=O)c4nccnc4N)c3)cc2C(F)(F)F)CC1
AC50: 23.6 µM

Cc1ccc(C(=O)/C=C/C(=O)c2ccc(C)cc2)cc1
AC50: 7.08 µM

CC(=NNC(=S)Nc1ccccc1)c1ccccn1
AC50: 1.56 µM

COc1cc2c(cc1OC)C(c1ccc(-c3ccccc3Cl)o1)=NCC2
AC50: 21 µM

CCCC(=O)NC(c1cccc([N+](=O)[O-])c1)c1ccc2cccnc2c1O (configuration not stated)
AC50: 3.59 µM

O=C(N/N=C/c1cccs1)c1n[nH]c2c1CCCC2
AC50: 27 µM

CCN1CCN(Cc2ccc(NC(=O)c3ccc(C)c(/C=C/c4cnc(Nc5cc(N6CCNCC6)nc(C)n5)cn4)c3)cc2C(F)(F)F)CC1
AC50: 14.3 µM

CCCc1sc(N/N=C/c2ccccn2)nc1-c1ccc(Br)cc1
AC50: 21.4 µM

COc1ccc(C(=O)Nn2c(SCC(=O)NC3CCCCC3)nc3ccccc3c2=O)cc1
AC50: > 26 µM (inactive)

CCc1ccc(Nc2n[n+](-c3ccccc3)c(-c3c(Cl)cccc3Cl)s2)cc1
AC50: 11.2 µM

CC(=NNC(=S)N1CCCC1)c1ccccn1
AC50: 4.56 µM

Oc1ccccc1/C=N/Nc1nccnc1Cl
AC50: > 26 µM (inactive)

Cc1[nH]n(-c2ccccc2)c(=O)c1/C=N/Nc1nncc(-c2ccccc2)n1
AC50: 2.64 µM

Cc1ccc(CSc2nc3ccncc3[nH]2)cc1
AC50: 20.9 µM

Cc1cc(Sc2nnc(N)s2)c2ccccc2n1
AC50: 3.34 µM

CCCCC(=O)NC(c1ccc(Cl)cc1Cl)c1ccc2cccnc2c1O (configuration not stated)
AC50: 3.16 µM

CCCCC(=O)NC(c1cccc([N+](=O)[O-])c1)c1ccc2cccnc2c1O (configuration not stated)
AC50: 3.93 µM

CS(=O)(=O)c1ncc(Cl)c(C(=O)Nc2ccc(OC(F)F)cc2)n1
AC50: 3.2 µM

COc1ccccc1NC(=S)NN=C(C)c1ccccn1
AC50: 0.403 µM

CCN(CC)C(=O)c1ccc(NC(=O)Nc2ccccc2F)cc1
AC50: 2.41 µM

NC(=S)NN=Cc1nccc2c(C(F)(F)F)cccc12
AC50: 5.67 µM

CC(=NNc1nc2ccccc2o1)c1cc2ccccc2cn1
AC50: 0.252 µM

CC(C)C(=O)NC(c1cccc([N+](=O)[O-])c1)c1ccc2cccnc2c1O (configuration not stated)
AC50: 4.33 µM

COc1ccccc1/C=C/C(=O)c1ccc(Cl)cc1
AC50: 12.4 µM

S=C(NCCCN1CCOCC1)N1CCN(c2nc(-c3ccc(Cl)cc3)cs2)CC1
AC50: > 26 µM (inactive)

CCCCC(=O)NC(c1ccc(OC)cc1)c1ccc2cccnc2c1O (configuration not stated)
AC50: 16.2 µM

CN(C)c1ccc(-c2nc3ccccc3n2C)cc1
AC50: 14.1 µM

O=C(N/N=C/c1ccc(O)cc1O)c1ccc(CN2C(=O)c3cccc4cccc2c34)cc1
AC50: 9.41 µM

C#Cc1cc(N2CCN(C(=O)c3ccoc3)CC2)n2nc(-c3cccc(Cl)c3)cc2n1
AC50: 5.11 µM

CC(=NNC(=S)N1CCN(c2ccccn2)CC1)c1nccs1
AC50: 3.52 µM

O=C(Nc1nnc(SCc2ccc(F)cc2)s1)c1ccccn1
AC50: 25.9 µM

CC(=NNC(=S)Nc1ccccc1Cl)c1ccccn1
AC50: 0.922 µM

NC(=S)NN=Cc1nccc2c(C(F)(F)C(F)(F)C(F)(F)F)cccc12
AC50: 1.52 µM

CCCCCN=Cc1c(C)[nH]n(-c2nc3ccccc3s2)c1=O
AC50: 1.33 µM

C[n+]1c2n(c3ccccc31)N=C(c1cc(C(C)(C)C)c(O)c(C(C)(C)C)c1)CS2
AC50: 9.45 µM

CCOC(=O)c1cn2nc(N3CCCCC3)ccc2n1
AC50: > 26 µM (inactive)

c1ccc(CN2CCN(c3ncnc4c3[nH]c3ccccc34)CC2)cc1
AC50: 11.8 µM

COc1ccc(-c2nc(-c3cccs3)no2)cc1
AC50: > 26 µM (inactive)

COc1cccc(/C=N/Nc2ncnc(Cl)c2N)c1O
AC50: 3.23 µM

O=C(CCc1ccccc1)NC(c1cccs1)c1cc(Cl)c2cccnc2c1O (configuration not stated)
AC50: 9.28 µM

CCN(CC)c1ccc(/C=N/NC(=O)c2c(Cl)cnn2C)c(O)c1
AC50: 2.81 µM

CC1(C)N=C(N)N=C(N)N1c1ccc(CCCCc2ccccc2)cc1
AC50: 0.406 µM

Brc1ccc(-c2nc(-c3ccccn3)no2)o1
AC50: > 26 µM (inactive)

COc1cc([C@@H]2c3cc4c(cc3[C@@H](O[C@@H]3O[C@@H]5CO[C@@H](C)O[C@H]5[C@H](O)[C@H]3O)[C@H]3COC(=O)[C@H]23)OCO4)cc(OC)c1O
AC50: 26.5 µM

O=C(Nc1ccc2c(c1)OCCO2)c1ccccn1
AC50: 21.2 µM

COc1ccc(OCc2cccc(C(=O)NN)c2)cc1
AC50: > 26 µM (inactive)
